The text below walks through data of patent US20240109873A1, “ANTAGONISTS OF THE MUSCARINIC ACETYLCHOLINE RECEPTOR M4” (Vanderbilt University, priority 2020, published 2024).

The target of the experiment is T1, human mAChR M4 (Homo sapiens, UniProt P08173).
T1 construct: expressed in transfected cells; host or cells: CHO-K1 (ATCC), co-transfected with chimeric G protein Gqi5
T1 sequence (P08173 1-479): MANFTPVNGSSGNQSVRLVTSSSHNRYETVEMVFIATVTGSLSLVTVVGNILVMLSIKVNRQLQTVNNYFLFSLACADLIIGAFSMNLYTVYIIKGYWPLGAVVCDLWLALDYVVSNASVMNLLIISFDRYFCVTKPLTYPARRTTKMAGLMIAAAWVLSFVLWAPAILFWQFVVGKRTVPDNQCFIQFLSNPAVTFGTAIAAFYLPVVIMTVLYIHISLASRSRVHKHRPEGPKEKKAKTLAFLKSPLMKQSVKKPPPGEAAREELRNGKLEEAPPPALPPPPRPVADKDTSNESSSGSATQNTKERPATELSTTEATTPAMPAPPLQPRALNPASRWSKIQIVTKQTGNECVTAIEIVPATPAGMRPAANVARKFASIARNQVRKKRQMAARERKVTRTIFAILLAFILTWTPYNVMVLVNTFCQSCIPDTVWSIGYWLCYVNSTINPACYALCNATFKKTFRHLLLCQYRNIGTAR
The experiment can be described thus: mAChR M4 cell-based functional assay (calcium flux, antagonism of EC80 acetylcholine response, M4/Gqi5/CHO-K1 cells). To be noted: for remaining activity at 30 µM: CHO-K1, % ACh maximum at 30 μM, read-out: Human M4 Emin; for IC50: decrease of the response elicited by an EC80 concentration of acetylcholine, CHO-K1 cells, Gqi5. As for the experimental part:
Human or rat M4 cDNA, along with the chimeric G protein Gqi5, were transfected into Chinese hamster ovary (CHO-K1) cells purchased from the American Type Culture Collection using Lipofectamine2000. M4/Gqi5/CHO cells were grown in Ham's F-12 medium containing 10% heat-inactivated fetal bovine serum (FBS), 20 mM HEPES, 500 μg/mL G418 sulfate, and 200 μg/mL Hygromycin B.
For high throughput measurement of agonist-evoked increases in intracellular calcium, CHO-K1 cells stably expressing muscarinic receptors were plated in growth medium lacking G418 and hygromycin at 15,000 cells/20 μL/well in Greiner 384-well black-walled, tissue culture (TC)-treated, clear-bottom plates (VWR). Cells were incubated overnight at 37° C. and 5% CO2. The next day, cells were washed using an ELX 405 (BioTek) with assay buffer; the final volume was then aspirated to 20 μL. Next, 20 μL of a 2.3 μM stock of Fluo-4/acetoxymethyl ester (Invitrogen, Carlsbad, CA), prepared as a 2.3 mM stock in DMSO and mixed in a 1:1 ratio with 10% (w/v) Pluronic F-127 and diluted in assay buffer, was added to the wells and the cell plates were incubated for 50 min at 37° C. and 5% CO2. Dye was removed by washing with the ELX 405 and the final volume was aspirated to 20 μL. Compound master plates were formatted in a 10-point concentration-response curve (CRC) format (1:3 dilutions) in 100% DMSO with a starting concentration of 10 or 1 mM using a BRAVO liquid handler (Agilent). Test compound CRCs were then transferred to daughter plates (240 nL) using the Echo acoustic plate reformatter (Labcyte, Sunnyvale, CA) and then diluted into assay buffer (40 μL) to a 2× stock using a Thermo Fisher Combi (Thermo Fisher Scientific, Waltham, MA).
Calcium flux was measured using the Functional Drug Screening System (FDSS) 6000 or 7000 (Hamamatsu Corporation, Tokyo, Japan) as an increase in the fluorescent static ratio. Compounds were applied to cells (20 μL, 2×) using the automated system of the FDSS at 2 seconds into the protocol and the data were collected at 1 Hz. At 143 s, 10 μL of an EC20 concentration of the muscarinic receptor agonist acetylcholine was added (5×), followed by the addition of 12 μL of an EC80 concentration of acetylcholine at the 268 s time point (5×). Agonist activity was analyzed as a concentration-dependent increase in calcium mobilization upon compound addition. Positive allosteric modulator activity was analyzed as a concentration-dependent increase in the EC20 acetylcholine response. Antagonist activity was analyzed as a concentration-dependent decrease in the EC80 acetylcholine response; for the purposes of the tables herein, an IC50 (inhibitory concentration 50) was calculated as a concentration-dependent decrease of the response elicited by an EC80 concentration of acetylcholine. Concentration-response curves were generated using a four-parameter logistical equation in XLFit curve fitting software (IDBS, Bridgewater, NJ) for Excel (Microsoft, Redmond, WA) or Prism (GraphPad Software, Inc., San Diego, CA) or the Dotmatics software platform (Dotmatics, Bishop's Stortford, UK). […]
Compounds were synthesized as described above. Activity (IC50 and Emin) was determined in the mAChR M4 cell-based functional assay as described above and the data are shown in Table 2.
(A change in cytosolic calcium serves as a functional read-out for many receptors and channels.)

On to `[2H]C1([2H])CC(C([2H])([2H])N2C[C@H]3C[C@H](Nc4nnc(-c5cnccc5C(F)(F)F)cc4OC)C[C@H]3C2)CC([2H])([2H])O1` [Compound 22, (3aR,5s,6aS)-N-(4-methoxy-6-(4-(trifluoromethyl)pyridin-3-yl)pyridazin-3-yl)-2-((tetrahydro-2H-pyran-4-yl-2,2,6,6-d4)methyl-d2)octahydrocyclopenta[c]pyrrol-5-amine], for which the remaining activity at 30 µM was determined as 2% and the IC50 (usually the concentration needed to halve the response being measured) worked out at 4.5 nM.

As for `[2H]C1([2H])CC(CN2C[C@H]3C[C@H](Nc4nnc(-c5cnccc5C(F)(F)F)cc4OC)C[C@H]3C2)CC([2H])([2H])O1` [Compound 23, (3aR,5s,6aS)-N-(4-methoxy-6-(4-(trifluoromethyl)pyridin-3-yl)pyridazin-3-yl)-2-((tetrahydro-2H-pyran-4-yl-2,2,6,6-d4)methyl)octahydrocyclopenta[c]pyrrol-5-amine], the remaining activity at 30 µM was determined as 2% and the IC50 is 3.9 nM.

As for `[2H]C([2H])([C@@H]1CCCOC1)N1C[C@H]2C[C@H](Nc3ccc(-c4cnccc4C(F)(F)F)nn3)C[C@H]2C1` [Compound 24, (3aR,5s,6aS)-2-(((S)-tetrahydro-2H-pyran-3-yl)methyl-d2)-N-(6-(4-(trifluoromethyl)pyridin-3-yl)pyridazin-3-yl)octahydrocyclopenta[c]pyrrol-5-amine], the remaining activity at 30 µM stood at 3% and the IC50 turned out to be 5.5 nM.

Turning to `[2H]C([2H])([C@H]1CCCOC1)N1C[C@H]2C[C@H](Nc3ccc(-c4cnccc4C(F)(F)F)nn3)C[C@H]2C1` [Compound 25, (3aR,5s,6aS)-2-(((R)-tetrahydro-2H-pyran-3-yl)methyl-d2)-N-(6-(4-(trifluoromethyl)pyridin-3-yl)pyridazin-3-yl)octahydrocyclopenta[c]pyrrol-5-amine], the remaining activity at 30 µM is 6% and the IC50 came out at 35 nM.

Consider `[2H]C([2H])(C1CCOCC1)N1C[C@H]2C[C@H](Nc3nnc(-c4cnccc4C(F)(F)F)cc3C(F)F)C[C@H]2C1` [Compound 26, (3aR,5s,6aS)-N-(4-(difluoromethyl)-6-(4-(trifluoromethyl)pyridin-3-yl)pyridazin-3-yl)-2-((tetrahydro-2H-pyran-4-yl)methyl-d2)octahydrocyclopenta[c]pyrrol-5-amine], for which the remaining activity at 30 µM was 6% and the IC50 turned out to be 1.3 nM.

Take `[2H]C([2H])(C1CCCOCC1)N1C[C@H]2C[C@H](Nc3ccc(-c4cnccc4C(F)(F)F)nn3)C[C@H]2C1` (stereo partly drawn) [Compound 28, (3aR,5s,6aS)-2-(oxepan-4-ylmethyl-d2)-N-(6-(4-(trifluoromethyl)pyridin-3-yl)pyridazin-3-yl)octahydrocyclopenta[c]pyrrol-5-amine]: the remaining activity at 30 µM came to 4% and the IC50 stood at 2.7 nM.

As for `[2H]C([2H])(CC1CCOCC1)N1C[C@H]2C[C@H](Nc3ccc(-c4cnccc4C(F)(F)F)nn3)C[C@H]2C1` [Compound 31, (3aR,5s,6aS)-2-(2-(tetrahydro-2H-pyran-4-yl)ethyl-1,1-d2)-N-(6-(4-(trifluoromethyl)pyridin-3-yl)pyridazin-3-yl)octahydrocyclopenta[c]pyrrol-5-amine], the remaining activity at 30 µM amounted to 5% and the IC50 amounted to 0.8 nM.

For `[2H]C([2H])(C1CC(C)(C)OC(C)(C)C1)N1C[C@H]2C[C@H](Nc3ccc(-c4cnccc4C(F)(F)F)nn3)C[C@H]2C1` [Compound 32, (3aR,5s,6aS)-2-((2,2,6,6-tetramethyltetrahydro-2H-pyran-4-yl)methyl-d2)-N-(6-(4-(trifluoromethyl)pyridin-3-yl)pyridazin-3-yl)octahydrocyclopenta[c]pyrrol-5-amine], the remaining activity at 30 µM came out at 14% and the IC50 turned out to be 24 nM.

With `[2H]C([2H])(C1CCOC(C)(C)C1)N1C[C@H]2C[C@H](Nc3ccc(-c4cnccc4C(F)(F)F)nn3)C[C@H]2C1` (stereo partly drawn) [Compound 33, (3aR,5s,6aS)-2-((2,2-dimethyltetrahydro-2H-pyran-4-yl)methyl-d2)-N-(6-(4-(trifluoromethyl)pyridin-3-yl)pyridazin-3-yl)octahydrocyclopenta[c]pyrrol-5-amine], the IC50 amounted to 4.2 nM. Moreover, the “Human M4 Emin” value (% ACh maximum at 30 μM) was determined as 7%.

For the compound `[2H]C([2H])(C1CCOCC1)N1C[C@H]2C[C@H](Nc3nnc(-c4cnccc4C(F)(F)F)c4sccc34)C[C@H]2C1` [Compound 34, N-((3aR,5s,6aS)-2-((tetrahydro-2H-pyran-4-yl)methyl-d2)octahydrocyclopenta[c]pyrrol-5-yl)-7-(4-(trifluoromethyl)pyridin-3-yl)thieno[2,3-d]pyridazin-4-amine], the remaining activity at 30 µM came to 3% and the IC50 amounted to 0.7 nM.

`[2H]C([2H])(C1CCOCC1)N1C[C@H]2C[C@H](Nc3nnc(-c4cnccc4C(F)(F)F)c4ccsc34)C[C@H]2C1` [Compound 35, N-((3aR,5s,6aS)-2-((tetrahydro-2H-pyran-4-yl)methyl-d2)octahydrocyclopenta[c]pyrrol-5-yl)-4-(4-(trifluoromethyl)pyridin-3-yl)thieno[2,3-d]pyridazin-7-amine]: the remaining activity at 30 µM is 4% and the IC50 came to 0.52 nM.

Consider `[2H]C([2H])(N1C[C@H]2C[C@H](Nc3ccc(-c4cnccc4C(F)(F)F)nn3)C[C@H]2C1)C(F)(F)C1CCOCC1` [Compound 36, (3aR,5s,6aS)-2-(2,2-difluoro-2-(tetrahydro-2H-pyran-4-yl)ethyl-1,1-d2)-N-(6-(4-(trifluoromethyl)pyridin-3-yl)pyridazin-3-yl)octahydrocyclopenta[c]pyrrol-5-amine], for which the remaining activity at 30 µM is 6% and the IC50 was 39 nM.

Take `[2H]C([2H])(N1C[C@H]2C[C@H](Nc3nnc(-c4cnccc4C(F)(F)F)cc3C)C[C@H]2C1)C(F)(F)C1CCOCC1` [Compound 37, (3aR,5s,6aS)-2-(2,2-difluoro-2-(tetrahydro-2H-pyran-4-yl)ethyl-1,1-d2)-N-(4-methyl-6-(4-(trifluoromethyl)pyridin-3-yl)pyridazin-3-yl)octahydrocyclopenta[c]pyrrol-5-amine]: the remaining activity at 30 µM came to 4% and the IC50 came out at 21 nM.

Take `[2H]C([2H])(C1CCOCC1)N1C[C@H]2C[C@H](Nc3ccc(-c4cccnc4C(F)F)nn3)C[C@H]2C1` [Compound 38, (3aR,5s,6aS)-N-(6-(2-(difluoromethyl)pyridin-3-yl)pyridazin-3-yl)-2-((tetrahydro-2H-pyran-4-yl)methyl-d2)octahydrocyclopenta[c]pyrrol-5-amine]: the remaining activity at 30 µM was 5% and the IC50 was 0.48 nM.

Turning to `[2H]C([2H])(C1CCOCC1)N1C[C@H]2C[C@H](Nc3ccc(-c4cccnc4C(F)(F)F)nn3)C[C@H]2C1` [Compound 39, (3aR,5s,6aS)-2-((tetrahydro-2H-pyran-4-yl)methyl-d2)-N-(6-(2-(trifluoromethyl)pyridin-3-yl)pyridazin-3-yl)octahydrocyclopenta[c]pyrrol-5-amine], the remaining activity at 30 µM is 23% and the IC50 was determined as 0.8 nM.
